Source: patent US8758474B2, “Urea fertilizer containing central volatilization inhibitor particles to reduce release of ammonia and processes for making same” (NFT Industries, LLC, priority 2010, dated 2014)

System: enzymes in the soil
Assay: Ammonia volatilization test (fertilizer applied to the surface of moist soil, ammonia captured in sulfuric acid and titrated)
Settings: cumulative, percent of total starting nitrogen
Description: Nitrogen lost, as ammonia, after soil application occurs over a long time period. The present volatilization test was designed to simulate and quantify processes in the soil. The volatilization test apparatus and procedure utilized to evaluate the test product samples described in above Table 1 is summarized as follows.
Procedure for Measurement of Ammonia
The test was designed to determine the volatility of a fertilizer product when applied to the surface of the soil. The baseline, standard that used was one gram of urea. Each sample was placed in a sample flask which contained a pre-weighed amount of soil and water. The same source of soil was used in all testing. Humidified air was then passed over the sample to carry any ammonia which had volatilized by the enzymes in the soil, to a receiving flask. The receiving flask contained sulfuric acid which captured the ammonia. The receiving flask was then titrated to determine the amount of ammonia volatilized from each sample.
Mixed Methyl Red—Methylene Blue Indicator (150 mL): • Dissolve 0.2 g of methyl red in 100 mL of ethyl alcohol (70-95%). Dissolve 0.1 g methylene blue in 50 mL of ethyl alcohol (70-95%). Mix together. • Indicator was good for 30 days. Testing Apparatus: Manifold: • a. A manifold was constructed of ½ inch cpvc (chlorinated polyvinyl chloride). • b. The manifold has 22 ports with a needle valve for air flow adjustment. • c. The tubing from the manifold to the sample flask was connected to a 1/16 inch hose barb on the needle valve.
2. Air Supply: • a. The air was supplied by an air compressor with a regulator to control the pressure to the manifold. • b. The air goes through a rotameter with a control knob to adjust the flow to the manifold (A minimum of 70 volumes of the head space is in each sample flask during each sampling interval, often much higher. Head space refers to the air volume above the soil.). • c. The air from the rotameter goes through a bubbler containing 25% sulfuric acid solution. After the sulfuric acid bubbler is a knock out chamber to prevent any sulfuric acid mist from going further. • d. The air then goes to a water bubbler to hydrate the air before going through another knock out chamber before entering the manifold.
3. Sample Flask • a. The sample flask is a 250 mL Erlenmeyer flask. The tubing from the manifold is connected to the flask by a barb fitting in a rubber stopper. • b. Each sample flask contained 48 grams of soil (dried and sieved through a 12 mesh screen), 12 grams of water, and the equivalent of one gram of urea. The materials were added to the flasks in the order list to ensure that the sample was added to moist soil (20-25%).
4. Receiving Flask • a. The receiving flask is a 125 mL Erlenmeyer flask. Tubing from the stopper on the sample flask is connected to a glass sparger passing through a stopper to the receiving flask. • b. Each receiving flask contains 50 mL of 0.5N Sulfuric Acid. • c. The tip of the glass sparger is below the level of the acid to allow the air to bubble through the acid and capture any ammonia present. • d. The receiving flask is removed and replaced with flask containing fresh solution at the intervals of 3, 7 and 10 days.
5. Measurement of Ammonia • a. The contents of each receiving flask removed at the intervals of 3, 7 and 10 days were tested for ammonia according to the above described Procedure for Measurement of Ammonia. The first ten days are most critical and are sufficient to determine reliable comparative results. • b. […] Ammonia Volatilization Test Results for Products in Table 2

| Compound | % Ammonia Released (Table 4 series, Day 0) | % Ammonia Released (Table 4 series, Day 3) | % Ammonia Released (Table 4 series, Day 7) | % Ammonia Released (Table 4 series, Day 10) | % Ammonia Released (Table 2 series, Day 0) | % Ammonia Released (Table 2 series, Day 3) | % Ammonia Released (Table 2 series, Day 7) | % Ammonia Released (Table 2 series, Day 10) | % Ammonia Released (Table 3 series, Day 0) | % Ammonia Released (Table 3 series, Day 3) | % Ammonia Released (Table 3 series, Day 7) | % Ammonia Released (Table 3 series, Day 10) | % Ammonia Released (Table 5 series, Day 0) | % Ammonia Released (Table 5 series, Day 3) | % Ammonia Released (Table 5 series, Day 7) | % Ammonia Released (Table 5 series, Day 10) |
| --- | --- | --- | --- | --- | --- | --- | --- | --- | --- | --- | --- | --- | --- | --- | --- | --- |
| N.O=P(O)(O)O [MAP, monoammonium phosphate] | 0% | 0.74% | 1.61% | 2.09% |  |  |  |  |  |  |  |  |  |  |  |  |
| NC(N)=O [Urea] | 0% | 27.41% | 88.77% | 90.81% | 0% | 0.23% | 72.29% | 82.37% | 0% | 1.09% | 38.83% | 81.33% | 0% | 0.05% | 40.35% | 65.11% |
